Source: paper PMC10349921 (Bioorganic & medicinal chemistry, 2022)

Biological target: human galectin 3 (Homo sapiens, UniProt P17931)
Experiment: SPR analysis of binding of glycan ligands to immobilized human Gal-3
Conditions: for Relative affinity: calculated relative to the free lactose

human galectin 3, sequence (P17931 whole entry): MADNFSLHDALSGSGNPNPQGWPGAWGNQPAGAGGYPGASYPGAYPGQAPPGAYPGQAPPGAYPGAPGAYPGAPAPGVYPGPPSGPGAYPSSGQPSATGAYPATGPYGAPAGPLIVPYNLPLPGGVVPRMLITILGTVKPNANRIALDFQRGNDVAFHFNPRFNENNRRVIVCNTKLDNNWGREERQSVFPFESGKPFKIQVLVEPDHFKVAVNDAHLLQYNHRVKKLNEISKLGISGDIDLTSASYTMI

Relative affinity	EC50 (SPR, Gal-3 immobilized on CM5 chip, ligand as analyte, 25 °C)	enhanced relative affinity (per glycan ligand) in comparison with free lactose (SPR, per glycan ligand)	Relative affinity per unit (calculated for each sugar unit on cyclodextrin, relative to free lactose)	Compound
< 1.47				[N-]=[N+]=NCCOCCOCCO[C@@H]1O[C@H](CO)[C@@H](O[C@@H]2O[C@H](CO)[C@H](O)[C@H](O)[C@H]2O)[C@H](O)[C@H]1O [mono Lac (3)]
< 1.47				CC(=O)N[C@H]1[C@@H](OCCOCCOCCN=[N+]=[N-])O[C@H](CO)[C@H](O)[C@@H]1O[C@@H]1O[C@H](CO)[C@H](O)[C@H](O)[C@H]1O [mono TFD (2), 2-(2-(2-Azido)ethoxy)ethyl-2-actamido-2-desoxy-3-O-[-β-D-galactopyranosyl]-α-D-galactopyranoside]
< 1.47				CC(=O)N[C@H]1[C@@H](OCCOCCOCCN=[N+]=[N-])O[C@H](CO)[C@H](O)[C@@H]1O [mono Tn (1), 2-(2-(2-Azido)ethoxy)ethyl-2-actamido-2-desoxy-α-D-gal-actopyranoside]
1070	1.37 ± 0.39 µM	153 fold	153	β-Cyclodextrin-GalNAc [CD-Tn (16)]
